Assay results from patent US12208093B2 (THE JOHNS HOPKINS UNIVERSITY, priority 2016, dated 2025).
Where a name gives a salt, the structure may show the parent alone. Read-outs that look alike come from different tables or passages of the source.

How the values were obtained:
p21 mRNA = assay: qRT-PCR for p21 in infected HFFs; format: cell-based, human; settings: contact-inhibited cells, emetine 75 nM, p<0.01
Text: RNA isolation and real time quantitative reverse transcriptase (qRT) PCR. Total RNA was isolated from cultured cells using RNeasy Mini kit (Qiagen, Georgetown, MD) according to manufacturer's instructions. RevertAid first strand cDNA synthesis kit (Fermentas life sciences, Cromwell Park, MD) was used to synthesize first strand cDNA from total RNA using oligo-dT primers. Negative reverse-transcriptase (−RT) reactions were included to ensure the specificity of qRT-PCR reactions. Synthesis of first strand cDNA from mRNA template was carried out at 42° C. for 1 h. Quantitative RT-PCR (qRT-PCR) was performed using specific primers for p21 (F: 5′ […] 3′ (SEQ ID NO:3); R: 5′ […] 3′) (SEQ ID NO:4) and SYBR green (Fermentas life science) with two-step cycling protocol (95° C. for 15 s, 60° C. for 1 min). Reactions were performed in triplicates and GAPDH (F: 5′ […] 3′ (SEQ ID NO:5); R: 5′ […] 3′ (SEQ ID NO:6)) was used as the internal control.

MDM2-p53 = assay: Co-immunoprecipitation of MDM2 and p53; MDM2 and p53 expression; format: cell-based, human; settings: contact-inhibited infected cells
Text: (§1) SDS-polyacrylamide gel electrophoresis and immunoblot analysis. Cell lysates were quantified for protein content using bicinchoninic acid (BCA) protein assay kit (Pierce Chemical, Rockford, IL). Equivalent amount of proteins were used for Western blot analysis as described previously. Protein bands were visualized by chemiluminescence using Western Blotting Luminol Reagent (Santa Cruz Biotechnology, Santa Cruz, CA). The following antibodies were used for detection of HCMV proteins: mouse anti-IE1 and IE2, (MAb810); mouse anti-UL44 (Santa Cruz biotechnology Santa Cruz, CA); mouse monoclonal anti-pp65 (Vector laboratories, Burlingame, CA); mouse monoclonal anti-β-actin antibody (Millipore, Billerica, MA); rabbit polyclonal anti-RPS14 and mouse monoclonal anti-MDM2 (AbCam, Cambridge, UK), mouse monoclonal anti-p53 (Santa Cruz, CA); horseradish peroxidase (HRP)-conjugated goat anti-rabbit IgG (Cell Signaling); and HRP-conjugated sheep anti-mouse IgG, (GE Healthcare, Waukesha, WI). For detection of co-immunoprecipitated proteins, protein A-HRP conjugate (Cell Signaling Technologies, Beverly, MA) was used as secondary antibody to eliminate the interfering IgG bands.
Co-immunoprecipitation (IP) and immunoblotting. Non-infected, infected or emetine-treated HFFs were treated with MG132 (10 μM) for 12 h. […] 1 mg of lysate was precleared with bead slurry for 30 min. The precleared lysates were incubated with anti-MDM2 (2 μg) antibody overnight. The antibody complexes were isolated using protein A/G beads (Santa Cruz), washed three times with 50% IP buffer. The immunoprecipitate—protein A/G beads were boiled in SDS sample buffer, and the supernatant was analyzed on SDS-PAGE gels after immunoblotting as described previously. […] Reverse IPs were performed by pulling down the precleared lysates with either anti-p53 antibody or anti-RPS14 antibody and detected with MDM2. […] In other experiments, transfected or treated HEK293 cell lysates were pulled-down with anti-IE2 antibody and detected with anti-MDM2 antibody and vice-versa for reverse IP.

in vivo = assay: in vivo
Description: Pharmacokinetics and CMV inhibition in mice. […] The dosing solution was prepared in saline with a dosing volume of 10 mL/kg. Blood and tissue samples including liver, lung and spleen were collected at 0, 0.083, 0.25, 0.5, 0.75, 1, 2, 3, 4, 7, 24, 30, 48, 72 and 96 hr. […] Pharmacokinetic parameters (Cmax, Tmax, AUC and t1/2) were calculated with a non-compartmental approach using the Pharsight WinNonLin software (Ver. 6.4). The experimental procedures were approved by the Animal Care and Use Committee of Division of Veterinary Resources, NIH.

MDM2-IE2 interaction = assay: Co-immunoprecipitation of MDM2 and IE2 in transfected HEK293 cells; format: cell-based; settings: HEK293 cells transfected with IE1/2; emetine 75 nM or GCV 5 μM, 4 h
Description: Transient transfections. HEK-293 cells seeded into 10 cm petri dishes were transfected with HCMV plasmid encoding IE1 and IE2 (pRL45) plasmid, 1 μg/dish, using Lipofectamine 2000 in serum free medium. After 6 h, 10% FBS containing media was added along with 10 μM of MG132. […] Cells were then harvested to prepare lysates for IP.
Co-immunoprecipitation (IP) and immunoblotting. Non-infected, infected or emetine-treated HFFs were treated with MG132 (10 μM) for 12 h. Cells were harvested after 24 hpi and lysed with IP buffer containing 150 mM NaCl, 50 mM Tris pH 7.5, 2 mM EDTA, 0.5% TritonX-100 and 0.5% NP-40-40. 1 mg of lysate was precleared with bead slurry for 30 min. The precleared lysates were incubated with anti-MDM2 (2 μg) antibody overnight. The antibody complexes were isolated using protein A/G beads (Santa Cruz), washed three times with 50% IP buffer. The immunoprecipitate—protein A/G beads were boiled in SDS sample buffer, and the supernatant was analyzed on SDS-PAGE gels after immunoblotting as described previously. […] Reverse IPs were performed by pulling down the precleared lysates with either anti-p53 antibody or anti-RPS14 antibody and detected with MDM2. […] In other experiments, transfected or treated HEK293 cell lysates were pulled-down with anti-IE2 antibody and detected with anti-MDM2 antibody and vice-versa for reverse IP.

[1] = human; cited from earlier work
[2] = test system: HSV-1 (luciferase HSV1-KOS/Dlux/oriS); assay: HSV-1 luciferase assay in HFFs; format: cell-based, herpes simplex virus 1; settings: nM concentrations
Text: (§2) Cell culture, virus infection and anti-viral assays.

[3] = test system: pp28-luciferase HCMV Towne; assay: Second cycle luciferase assay; format: cell-based, human cytomegalovirus (HCMV); settings: emetine 75 nM, vs infected control
Text: as §2

protein synthesis = settings: at concentration that inhibit CMV replication in vitro; cited from earlier work
[4] = test system: HCMV proteins IE1/2, UL44 and pp65; assay: Western blot of HCMV protein expression; format: cell-based, human cytomegalovirus (HCMV); settings: 72 hpi
Text: as §1

## CC[C@H]1CN2CCc3cc(OC)c(OC)cc3[C@@H]2C[C@@H]1C[C@H]1NCCc2cc(OC)c(OC)cc21 [emetine, emetine dihydrochloride hydrate]
p21 mRNA; 24 hpi
  increase in p21 mRNA: 5.4 fold
p21 mRNA; 72 hpi
  increase in p21 mRNA: 6.7 fold
MDM2-p53; 72 hpi
  MDM2 expression: increased
  p53 expression: increased
MDM2-p53; not cycling cells, MG132
  HCMV-induced interaction between MDM2 and p53: disrupted
In vivo; male, BALB/c, mouse, in vivo, 0.1 mg/kg
  Cmax: 1.4 ng/mL
In vivo; male, BALB/c, mouse, in vivo, ip, 0.1 mg/kg, half-life, single intraperitoneal administration 0.1 mg/kg, mice
  half-life: 32 h
In vivo; male, BALB/c, mouse, in vivo, po, 1 mg/kg, half-life, single oral administration 1 mg/kg, male BALB/c mice
  half-life: 32 h
In vivo; single oral administration 1 mg/kg, male BALB/c mice, dihydrochloride hydrate, 1 mg/kg
  half-life: 24 h
MDM2-IE2 interaction
  interaction of MDM2 and IE2: significantly decreased
[1]
  half-life: 24 to 48 h
[2]
  inhibition of HSV-1: inhibited
[3]; 0.5 million cells/plate, p>0.5
  increase in pp28-luciferase activity, second cycle infection: 1.5 fold
[3]; 1 million cells/plate, p<0.001
  reduction in pp28-luciferase activity, second cycle infection: 1.5 fold
[3]; 2 million cells/plate, p<0.001
  pp28-luciferase activity, second cycle infection: almost complete inhibition
Protein synthesis
  inhibition of protein synthesis: no inhibition of protein synthesis
[4]
  expression of HCMV proteins IE1/2, UL44 and pp65: significantly reduced
[4]; emetine 75 nM, vs infected untreated cells, not at lower cell density
  viral UL44 and pp65 expression at high cell density: significant reduction
